The values below come from patent US6099822A, “Imaging methods and compositions” (priority 1998, dated 2000).

The test system of data set [1] is Chinese hamster ovary cells. The following applies: in words; cited from earlier work.
The test system of data set [2] is MX-1 human breast tumor xenografts. The data set can be described thus: Autoradiographic biodistribution of Tc-99m-TG and C14-DG in nude mice bearing MX-1 tumors. It counts as in vivo. The following applies: MX-1, center of the tumors, in words. The procedure: 3 mCi (111 MBq) of Tc-99m-5TG and 5 μCi (185 kBq) of C^14 -DG were injected at the same time into the tail vein of the mice. Autoradiogram sections including the tumors and vital organs of the mice were obtained at 20 minutes, 1 hour, and 3 hours post injection and developed using simultaneous Tc-99m and C^14 exposures of the same sections.

Consider `O=C([O-])CN(CCN(CC(=O)[O-])CC(=O)[O-])CCN(CC(=O)[O-])CC(=O)[O-].[99Tc+4]` [Tc-99m-DTPA], for which the “Exclusion by hypoxic cells” value in data set [1] is “exclusion of Tc-99m-DTPA by hypoxic cells”.

Take C^14 -2-deoxyglucose [C^14 -DG]: in data set [2], the Distribution within tumor entry is “decreased activity in this central area”.
